For data set [1], the target named is T1, Isoprenylcysteine carboxyl methyltransferase (Icmt) (Homo sapiens, UniProt O60725).
T1 construct: made in house; host or cells: Sf9 (Spodoptera frugiperda) insect cells; membrane preparation provided by Prof PJ Casey (Duke University / Duke-NUS)
Kind of data set: Icmt inhibition, scintillation proximity assay with BFC and [3H]SAM. It is filed as biochemical. The conditions noted are these: for IC50: read-out: IC50 Icmt.

The nature of data set [2]: Aggregation tendency by dynamic light scattering (DLS). The class given is physicochemical. The following applies: for DLS count rate (kcps): 1% DMSO, potassium phosphate buffer 5 mM pH 7.4. The procedure: Stock solutions (10 mM) of test compounds prepared in DMSO, diluted to 1 mM with DMSO and then serially diluted with potassium phosphate buffer (5 mM, pH 7.4, prefiltered before use) to give final concentrations of 1 μM and 10 μM. Final concentration of DMSO was 1% v/v. Measurements were carried out on the Malvern Instrument Zetasizer Nano ZS system equipped with a 4 mW He—Ne laser at 633 nm and detector angle of 90°. Three or more determinations of derived count rates (kilocounts per second, kcps) were obtained from each concentration of test compound, using two separately prepared stock solutions. Data collection was carried out using the software supplied with the instrument. Results are represented as mean±standard deviation. The positive control was benzyl benzoate (250 μM) which gave a count rate of 1180 kcps (±35). The vehicle (phosphate buffer, 1% DMSO) gave a reading of 14.9±0.4.

The nature of data set [3]: In vitro metabolite structure identification. The class given is in vitro ADME. The conditions noted are these: rat liver microsomes, 45 min, LC/MS/MS. How it is done:
The test compound was incubated with rat liver microsomes for 45 minutes, after which aliquots were analyzed by LC/MS/MS for the presence of metabolites. The test compound was incubated with pooled rat liver microsomes (BD Gentest Corp, Woburn, Mass.) in a mixture (final volume 500 μL) comprising the following: rat liver microsomes (7.5 μL of 20 mg microsomal protein to give final concentration of 0.3 mg microsome protein/mL), test compound (2.5 μL of 1 mM test compound in acetonitrile to give final concentration of […]) and phosphate buffer (440 μL of 0.1 M, pH 7.4, containing 1 mM EDTA). The mixture was preincubated for 5 min at 37° C. in a shaking water bath, after which-reaction was initiated by adding 50 μL of 10 mM NADPH (freshly prepared in phosphate buffer) to give a final concentration of 1 mM NADPH in the mixture. Aliquots of 50 μL were withdrawn immediately on addition of NADPH (time 0) and 45 min later. On removal of the sample, reaction was quenched by addition of chilled methanol (100 μL). The mixture was then centrifuged at 10,000 g to remove the protein and the supernatant was analyzed by LC-MS-MS.
Liquid chromatography was performed on an Agilent® 1200 series HPLC system interfaced with a QTRAP 3200 triple quadruple mass spectrometer (Applied Biosystems, Foster City, Calif.). […]

The mark [4] stands for this setting: Table 3, mean of two or more determinations (SD).

Like-named read-outs stand apart in the source and are kept apart here.

T1 sequence (O60725 whole entry, species assumed): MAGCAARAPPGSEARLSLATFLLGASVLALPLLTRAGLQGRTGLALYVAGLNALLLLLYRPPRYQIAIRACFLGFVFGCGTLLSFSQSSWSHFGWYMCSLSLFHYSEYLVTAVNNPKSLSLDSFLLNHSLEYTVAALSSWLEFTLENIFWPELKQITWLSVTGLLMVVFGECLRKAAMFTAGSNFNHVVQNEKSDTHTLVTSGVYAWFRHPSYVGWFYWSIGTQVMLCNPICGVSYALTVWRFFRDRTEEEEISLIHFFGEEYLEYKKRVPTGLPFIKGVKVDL

As for `CCCCCCCCn1c2c(c3cc(-c4cnc(N)nc4)ccc31)CN(C)CC2` [Compound 305, 8-(2′-amino-pyrimidin-5′-yl)-2-methyl-5-n-octyl-1,2,3,4-tetrahydropyrido[4,3-b]indole], the half-maximal inhibitory concentration (IC50) in data set [1] (setting [4]) was found to be 3300 nM. Further, the “fold higher IC50 Icmt than cysmethynil” value in data set [1] (ratio of IC50 Icmt) is “about 2”. In addition, the “DLS count rate (kcps)” value came out at 21.0 kcps in data set [2] (1 μM) and 29.0 kcps in data set [2] (10 μM).
For the molecule `CCCCCCCCn1cc(CN(CC)CC)c2cc(-c3cnc(N)nc3)ccc21` [Compound 8-12, 5-(3-Diethylaminomethyl-1-octyl-1H-indol-5-yl)-pyrimidin-2-ylamine], the IC50 was found to be 780 nM in data set [1] (setting [4]) and 860 nM in data set [1] (further testing, mean (SD)). Also, the “DLS count rate (kcps)” value is 24.5 kcps in data set [2] (1 μM) and 53.3 kcps in data set [2] (10 μM). Also, the “fold increase in light scattering” value in data set [2] (concentration increased from 1 μM to 10 μM) is 2. The metabolites found entry in data set [3] was “four metabolites were proposed”.
For `CCCCCCCCn1cc(CC(N)=O)c2cc(-c3cccc(C)c3)ccc21` [Cysmethynil, 2-[5-(3-methylphenyl)-1-octyl-1H-indolo-3-yl]acetamide, reference compound], the IC50 is 1800 nM in data set [1] (setting [4]) and 1900 nM in data set [1] (further testing, mean (SD)). Also, the “DLS count rate (kcps)” value in data set [2] (1 μM) was 22.6 kcps; in data set [2] (10 μM), 164.0 kcps. Further, the metabolites found in data set [3] is recorded as 4 mono-oxygenated/hydroxylated metabolites (A-D).
